Patent US12612389B2, “Benzofuran-based N-acylhydrazone derivative and pharmaceutical composition comprising same” (KOREA RESEARCH INSTITUTE OF BIOSCIENCE AND BIOTECHNOLOGY, priority 2019, dated 2026)
Values belong to the compound of their own block, whether it stands above or below them.

Columns and labels:
MCF7/ADR = assay: Anti-proliferative activity test in cancer cells exhibiting multidrug resistance (MTT); type: cell-based; conditions: for Resistance Factor: ratio IC50 MCF7/ADR to IC50 MCF7
Protocol: (§1) HeLa cells (American Type Culture Collection: ATCC, USA), a human cervical cancer cell line, were seeded in a 96-well plate at 3×10^3 cells/well, and the cells were then treated with compounds of Examples or Comparative Example according to the present invention and grown for 2 days. Then, MTT (3-(4,5-dimethylthiazol-2-yl)-2,5-diphenyltetrazolium bromide) reagent was added at 10 μL/well. […] The data shown in Table below are mean values of results obtained by repeating the analysis twice. Specifically, K562 and MCF7 (Bio Evaluation Center, Korea Research Institute of Bioscience and Biotechnology, Korea) and multidrug-resistant cell lines of each of these cell lines, i.e., K562/ADR and MCF7/ADR (Bio Evaluation Center, Korea Research Institute of Bioscience and Biotechnology, Korea), were cultured on microtiter plates (1-3×10^3 cells/well). […] The data shown in Table below are mean values of results obtained by repeating the analysis three times.

K562/ADR = assay: as above; type: cell-based; conditions: for Resistance Factor: ratio IC50 K562/ADR to IC50 K562
Protocol: as §1

HeLa cells = assay: Anti-proliferative activity test in HeLa cell line (MTT); type: cell-based; conditions: Homo sapiens, 48 h, grown for 2 days, mean of 2
Protocol: HeLa cells (American Type Culture Collection: ATCC, USA), a human cervical cancer cell line, were seeded in a 96-well plate at 3×10^3 cells/well, and the cells were then treated with compounds of Examples or Comparative Example according to the present invention and grown for 2 days. Then, MTT (3-(4,5-dimethylthiazol-2-yl)-2,5-diphenyltetrazolium bromide) reagent was added at 10 μL/well. After 2 hours, absorbance was measured at “OD 450” and statistical values were obtained using Prism™6 program. The data shown in Table below are mean values of results obtained by repeating the analysis twice.

K562 = assay: Anti-proliferative activity test in cancer cells exhibiting multidrug resistance (MTT), parent line; type: cell-based; conditions: Homo sapiens, 96 h, 4 days
Protocol: as §1

MCF7 = assay: as above; type: cell-based; conditions: Homo sapiens, 96 h, 4 days
Protocol: as §1

[1] = Metabolic stability test in liver microsomes; type: in vitro ADME; conditions: 0.5 mg protein/mL, 37° C.
Protocol: (§2) The test compounds at a concentration of […] were administered in the presence or absence of NADPH (1 mM) to liver […] (0.5 mg protein/mL) of humans, rats and mice, and metabolic stability was tested at 37° C. for 30 minutes. In addition, buspirone was used as a positive control. Results thereof are shown in Table below and FIGS. 4A to 4E.

[2] = Stability in buffer (line of the metabolic stability test); type: in vitro ADME
Protocol: as §2

Stability test in plasma [3] = type: in vitro ADME; parameters: Residue % (180 minutes elapsed), Mean: dose or concentration left out as unconfirmed; conditions: 37° C.
Protocol: In order to test the stability (in vivo) of the Example compounds according to the present invention, the compounds of Examples 2, 3, 4, 8 and 15 were administered intravenously, and plasma concentrations over time were observed. In addition, procaine was used as a positive control. Plasma stability was measured three times by administering the test compound at a concentration […] to human, rat, or mouse plasma (90 μL) at 37° C. Results thereof are shown in Table below and FIGS. 3A to 3E.

Stability test in plasma [4] = type: in vitro ADME; conditions: Rat plasma, 37° C.; for Residue % (180 minutes elapsed), Mean: 5 mM
Protocol: In order to test the stability (in vivo) of the Example compounds according to the present invention, the compounds of Examples 2, 3, 4, 8 and 15 were administered intravenously, and plasma concentrations over time were observed. In addition, procaine was used as a positive control. Plasma stability was measured three times by administering the test compound at a concentration of 5 mM to human, rat, or mouse plasma (90 μL) at 37° C. Results thereof are shown in Table below and FIGS. 3A to 3E.

SMILES: COc1cc2c(c(OC)c1OC)-c1ccc(OC)c(=O)cc1[C@@H](NC(C)=O)CC2 [Colchicine, colchicine]
Resistance Factor (MCF7/ADR): 34.15
Resistance Factor (K562/ADR): 22.91

SMILES: COc1cccc2c1C(=O)c1c(O)c3c(c(O)c1C2=O)C[C@@](O)(C(=O)CO)C[C@@H]3O[C@H]1C[C@H](N)[C@H](O)[C@H](C)O1 [Doxorubicin, doxorubicin]
IC50 (K562): 2.85 nM
IC50 (MCF7): 15.4 nM
IC50 (MCF7/ADR; Homo sapiens, NCI/ADR-RES, 96 h, MCF7/ADR (multidrug-resistant), 4 days, MTT): 2610 nM
Resistance Factor (MCF7/ADR): 169.57
IC50 (K562/ADR; Homo sapiens, 96 h, K562/ADR (multidrug-resistant), 4 days, MTT): 2190 nM
Resistance Factor (K562/ADR): 767.91

SMILES: Cc1ccc2oc(C(=O)N/N=C/c3c(Cl)[nH]c4ccccc34)cc2c1 [Example 1, (E)-N′-[(2-chloro-1H-indol-3-yl)methylene]-5-methylbenzofuran-2-carbohydrazide]
IC50 (HeLa cells): 3880 nM

SMILES: CCOC(=O)Cn1c(C)c(/C=N/NC(=O)c2cc3c(ccc4ccccc43)o2)c2ccccc21 [Comparative Example 1, (E)-ethyl 2-(2-methyl-3-((2-(naphtho[2,1-b]furan-2-carbonyl)hydrazono)methyl)-1H-indol-1-yl)acetate, reference compound]
IC50 (HeLa cells): 562 nM

SMILES: CCOCCn1c(Br)c(/C=N/NC(=O)c2cc3cc(C)ccc3o2)c2ccccc21 [Example 5, (E)-N′-[(2-bromo-1-(2-ethoxyethyl)-1H-indol-3-yl]methylene}-5-methylbenzofuran-2-carbohydrazide]
IC50 (HeLa cells): 263 nM

SMILES: CCOCCn1c(Cl)c(/C=N/NC(=O)c2cc3cc(C)ccc3o2)c2cc(Cl)ccc21 [Example 11, (E)-N′-[(2,5-dichloro-1-(2-ethoxyethyl)-1H-indol-3-yl]methylene}-5-methylbenzofuran-2-carbohydrazide]
IC50 (HeLa cells): 243 nM

SMILES: CCOCCn1c(Cl)c(/C=N/NC(=O)c2cc3cc(C)ccc3o2)c2cc(OC(F)(F)F)ccc21 [Example 12, (E)-N′-[(2-chloro-1-(2-ethoxyethyl)-5-(trifluoromethoxy)-1H-indol-3-yl]methylene}-5-methylbenzofuran-2-carbohydrazide]
IC50 (HeLa cells): 619 nM

SMILES: CCOCCn1c(C(F)(F)F)c(/C=N/NC(=O)c2cc3cc(C)ccc3o2)c2ccccc21 [Example 6, (E)-N′-{[1-(2-ethoxyethyl)-2-(trifluoromethyl)-1H-indol-3-yl]methylene}-5-methylbenzofuran-2-carbohydrazide]
IC50 (HeLa cells): 1220 nM

SMILES: Cc1ccc2oc(C(=O)N/N=C/c3c(Cl)n(C)c4ccccc34)cc2c1 [Example 2, (E)-N′-[(2-chloro-1-methyl-1H-indol-3-yl)methylene]-5-methylbenzofuran-2-carbohydrazide]
IC50 (HeLa cells): 892 nM
Residue (%) after culturing for 30 min ([1]; Human, +NADPH): 8.69 ± 0.44%
Residue (%) after culturing for 30 min ([1]; Human, −NADPH): 36.40 ± 1.90%
Residue (%) after culturing for 30 min ([1]; Mouse, +NADPH): 2.84 ± 0.34%
Residue (%) after culturing for 30 min ([1]; Mouse, −NADPH): 11.59 ± 1.06%
Residue (%) after culturing for 30 min ([1]; Rat, +NADPH): 2.99 ± 0.64%
Residue (%) after culturing for 30 min ([1]; Rat, −NADPH): 41.45 ± 0.93%
Residue (%) after culturing for 30 min [2]: 77.94 ± 7.04%
Residue % (180 minutes elapsed), Mean (Stability test in plasma [3]; Human plasma): 90.43%
half-life at 5 mM (Stability test in plasma [3]; Human plasma): > 3 h
Residue % (180 minutes elapsed), Mean (Stability test in plasma [3]; Mouse plasma): 55.82%
half-life at 5 mM (Stability test in plasma [3]; Mouse plasma): > 3 h
half-life at 5 mM (Stability test in plasma [4]): > 3 h
Residue % (180 minutes elapsed), Mean (Stability test in plasma [4]): 75.82%

SMILES: CCOCCn1c(Cl)c(/C=N/NC(=O)c2cc3cc(C)ccc3o2)c2cc(F)ccc21 [Example 10, (E)-N′-[(2-chloro-1-(2-ethoxyethyl)-5-fluoro-1H-indol-3-yl]methylene}-5-methylbenzofuran-2-carbohydrazide]
IC50 (HeLa cells): 221 nM

SMILES: CCOC(=O)Cn1c(Cl)c(/C=N/NC(=O)c2cc3cc(C)ccc3o2)c2ccccc21 [Example 3, ethyl (E)-2-{2-chloro-3-[(2-(5-methylbenzofuran-2-carbonyl)hydrazinylidene)methyl]-1H-indol-1-yl}acetate]
IC50 (HeLa cells): 243 nM
Residue (%) after culturing for 30 min ([1]; Human, +NADPH): 12.34 ± 0.69%
Residue (%) after culturing for 30 min ([1]; Human, −NADPH): 22.26 ± 0.72%
Residue (%) after culturing for 30 min ([1]; Mouse, +NADPH): 2.50 ± 0.11%
Residue (%) after culturing for 30 min ([1]; Mouse, −NADPH): 6.81 ± 0.17%
Residue (%) after culturing for 30 min ([1]; Rat, +NADPH): 1.39 ± 0.12%
Residue (%) after culturing for 30 min ([1]; Rat, −NADPH): 8.53 ± 0.46%
Residue (%) after culturing for 30 min [2]: 89.02 ± 4.39%
Residue % (180 minutes elapsed), Mean (Stability test in plasma [3]; Human plasma): 56.52%
half-life at 5 mM (Stability test in plasma [3]; Human plasma): > 3 h
Residue % (180 minutes elapsed), Mean (Stability test in plasma [3]; Mouse plasma): 0.12%
half-life at 5 mM (Stability test in plasma [3]; Mouse plasma): 0.0933 h
half-life at 5 mM (Stability test in plasma [4]): 0.0767 h
Residue % (180 minutes elapsed), Mean (Stability test in plasma [4]): 0.21%

SMILES: CCOCCn1c(Cl)c(/C=N/NC(=O)c2cc3cc(C)ccc3o2)c2ccc(OC)cc21 [Example 9, (E)-N′-[(2-chloro-1-(2-ethoxyethyl)-6-methoxy-1H-indol-3-yl]methylene}-5-methylbenzofuran-2-carbohydrazide]
IC50 (HeLa cells): 232 nM

SMILES: COCCn1c(Cl)c(/C=N/NC(=O)c2cc3cc(C)ccc3o2)c2ccccc21 [Example 7, (E)-N′-[(2-chloro-1-(2-methoxyethyl)-1H-indol-3-yl]methylene}-5-methylbenzofuran-2-carbohydrazide]
IC50 (HeLa cells): 233 nM

SMILES: O=C1CC2(CCCC2)CC(=O)N1CCCCN1CCN(c2ncccn2)CC1 [Buspirone, buspirone, reference compound]
Residue (%) after culturing for 30 min ([1]; Human, +NADPH): 2.21 ± 0.03%
Residue (%) after culturing for 30 min ([1]; Human, −NADPH): 91.06 ± 0.40%
Residue (%) after culturing for 30 min ([1]; Mouse, +NADPH): 0.32 ± 0.05%
Residue (%) after culturing for 30 min ([1]; Mouse, −NADPH): 94.74 ± 0.74%
Residue (%) after culturing for 30 min ([1]; Rat, +NADPH): 0.41 ± 0.02%
Residue (%) after culturing for 30 min ([1]; Rat, −NADPH): 93.08 ± 1.21%

More lines, now with the values ahead:

IC50 (HeLa cells): 262 nM
SMILES: CCOCCn1c(Cl)c(/C=N/NC(=O)c2cc3cc(OC)ccc3o2)c2ccccc21 [Example 14, (E)-N′-[(2-chloro-1-(2-ethoxyethyl)-1H-indol-3-yl]methylene}-5-methoxybenzofuran-2-carbohydrazide]

IC50 (HeLa cells): 500 nM
SMILES: CCOC(=O)Cn1c(C)c(/C=N/NC(=O)c2cc3c(OC)cc(OC)cc3o2)c2ccccc21 [Example 20, (E)-ethyl-2-(3-((2-(4,6-dimethoxybenzofuran-2-carbonyl) hydrazinylidene)methyl)-2-methyl-1H-indol-1-yl)acetate]

IC50 (HeLa cells): 455 nM
SMILES: CCOCCn1c(Cl)c(/C=N/NC(=O)c2cc3cc(Cl)ccc3o2)c2ccccc21 [Example 16, (E)-5-chloro-N′-{[2-chloro-1-(2-ethoxyethyl)-1H-indol-3-yl]methylene}benzofuran-2-carbohydrazide]

IC50 (HeLa cells): 337 nM
SMILES: CCOCCn1c(Cl)c(/C=N/NC(=O)c2cc3cc(C)ccc3o2)c2cc(C)ccc21 [Example 13, (E)-N′-[(2-chloro-1-(2-ethoxyethyl)-5-methyl-1H-indol-3-yl]methylene}-5-methylbenzofuran-2-carbohydrazide]

IC50 (HeLa cells): 563 nM
SMILES: CCOCCn1c(Cl)c(/C=N/NC(=O)c2cc3c(OC)cc(OC)cc3o2)c2ccccc21 [Example 18, (E)-N′-[(2-chloro-1-(2-ethoxyethyl)-1H-indol-3-yl]methylene}-4,6-dimethoxybenzofuran-2-carbohydrazide]

IC50 (HeLa cells): 4520 nM
SMILES: CCOCCn1c(Cl)c(/C=N/NC(=O)c2cc3cc(NC(C)=O)ccc3o2)c2ccccc21 [Example 19, (E)-N′-{2-[2-((2-chloro-1-(2-ethoxyethyl)-1H-indol-3-yl)methylene]hydrazine-1-carbonyl}benzofuran-5-yl)acetamide]

Residue % (180 minutes elapsed), Mean (Stability test in plasma [3]; Human plasma): 0.45%
Residue % (180 minutes elapsed), Mean (Stability test in plasma [3]; Mouse plasma): 1.06%
Residue % (180 minutes elapsed), Mean (Stability test in plasma [4]): 1.89%
SMILES: CCN(CC)CCOC(=O)c1ccc(N)cc1 [Procaine, procaine, reference compound]
